Measurements reported in ChEMBL document CHEMBL1155252 (Bioorg Med Chem, 2009).

How the values were obtained:
[1] = Inhibition of bovine PDE3 by scintillation proximity assay; design: species or system Bos taurus
[2] = target: 3',5'-cyclic-AMP phosphodiesterase 4B (Homo sapiens, UniProt Q07343); test: Inhibition of PDE4B by luciferase-coupled assay
[3] = target: cGMP-specific 3',5'-cyclic phosphodiesterase (Homo sapiens, UniProt O76074); test: Inhibition of human PDE5 by scintillation proximity assay
[4] = target: 3',5'-cyclic-AMP phosphodiesterase 4D (Homo sapiens, UniProt Q08499); test: Inhibition of PDE4D by luciferase-coupled assay
Chain of 3',5'-cyclic-AMP phosphodiesterase 4D (Q08499 whole entry): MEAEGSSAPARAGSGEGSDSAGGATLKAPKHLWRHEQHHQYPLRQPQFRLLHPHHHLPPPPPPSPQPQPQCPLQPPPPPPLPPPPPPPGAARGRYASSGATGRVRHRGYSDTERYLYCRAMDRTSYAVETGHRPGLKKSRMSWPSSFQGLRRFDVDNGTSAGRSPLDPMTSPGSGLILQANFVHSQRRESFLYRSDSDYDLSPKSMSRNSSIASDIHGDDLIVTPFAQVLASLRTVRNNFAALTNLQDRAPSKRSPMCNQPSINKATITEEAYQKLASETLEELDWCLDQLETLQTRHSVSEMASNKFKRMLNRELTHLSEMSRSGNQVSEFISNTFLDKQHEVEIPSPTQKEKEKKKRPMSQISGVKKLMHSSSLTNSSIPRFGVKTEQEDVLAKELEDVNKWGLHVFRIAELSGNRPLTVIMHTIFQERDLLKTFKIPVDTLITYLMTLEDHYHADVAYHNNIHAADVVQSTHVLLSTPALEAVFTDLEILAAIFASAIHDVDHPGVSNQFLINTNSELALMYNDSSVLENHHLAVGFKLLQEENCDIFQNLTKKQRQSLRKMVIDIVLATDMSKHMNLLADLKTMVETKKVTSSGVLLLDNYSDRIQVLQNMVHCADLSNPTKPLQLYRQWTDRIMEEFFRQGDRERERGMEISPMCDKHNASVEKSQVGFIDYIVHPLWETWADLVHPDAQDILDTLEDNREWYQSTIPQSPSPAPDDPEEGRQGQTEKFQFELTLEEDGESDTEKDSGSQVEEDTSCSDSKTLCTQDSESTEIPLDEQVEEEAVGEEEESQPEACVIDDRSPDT

[5] = Selectivity for PDE4B over PDE4D

Chain of 3',5'-cyclic-AMP phosphodiesterase 4B (Q07343 whole entry): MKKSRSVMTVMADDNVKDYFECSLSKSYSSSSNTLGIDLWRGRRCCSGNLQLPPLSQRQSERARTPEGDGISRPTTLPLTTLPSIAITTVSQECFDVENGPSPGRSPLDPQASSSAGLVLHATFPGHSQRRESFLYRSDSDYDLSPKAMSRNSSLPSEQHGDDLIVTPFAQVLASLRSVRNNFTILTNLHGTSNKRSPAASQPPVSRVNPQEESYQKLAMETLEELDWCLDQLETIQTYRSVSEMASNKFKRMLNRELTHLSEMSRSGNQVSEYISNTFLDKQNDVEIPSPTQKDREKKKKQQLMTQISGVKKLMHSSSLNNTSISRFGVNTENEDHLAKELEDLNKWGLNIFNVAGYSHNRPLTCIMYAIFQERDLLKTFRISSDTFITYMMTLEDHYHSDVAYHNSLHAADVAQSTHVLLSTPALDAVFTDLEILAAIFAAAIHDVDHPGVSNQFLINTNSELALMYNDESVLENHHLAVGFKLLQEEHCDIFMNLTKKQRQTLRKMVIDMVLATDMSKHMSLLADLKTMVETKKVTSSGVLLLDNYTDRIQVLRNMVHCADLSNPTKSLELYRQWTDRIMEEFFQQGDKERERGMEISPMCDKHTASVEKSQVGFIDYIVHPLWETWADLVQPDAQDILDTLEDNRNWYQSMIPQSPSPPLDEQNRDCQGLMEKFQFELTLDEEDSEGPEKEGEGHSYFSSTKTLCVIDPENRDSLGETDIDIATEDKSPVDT

| pIC50 [1] | IC50 [2] [nM] | IC50 [3] [nM] | IC50 [4] [nM] | Selectivity Index [5] | SMILES |
| --- | --- | --- | --- | --- | --- |
| < 5 | 200 | > 10000 | 316 | – | CC(C)(C)C1CCc2c(sc(NC(=O)c3ccncc3)c2C(N)=O)C1 (stereo unspecified) |
| – | 79.4 | – | – | – | CC(C)(C)C1CCc2c(sc(NC(=O)c3c(F)cccc3F)c2C(N)=O)C1 (stereo unspecified) |
| – | 5010 | – | 31600 | – | CC1CCCc2sc(NC(=O)c3ccccc3[N+](=O)[O-])c(C(N)=O)c21 (stereo unspecified) |
| – | > 10000 | – | – | – | CNC(=O)c1c(NC(=O)c2c(F)cccc2F)sc2c1CCC(C(C)(C)C)C2 (stereo unspecified) |
| – | 100 | – | 2510 | – | CCCCCC1CCc2c(sc(NC(=O)c3ccccc3[N+](=O)[O-])c2C(N)=O)C1 (stereo unspecified) |
| – | 5010 | – | 2510 | – | Cc1cccc(C)c1C1CCCc2sc(NC(=O)c3ccccc3[N+](=O)[O-])c(C(N)=O)c21 (stereo unspecified) |
| – | > 2510 | – | > 2510 | – | CC1CCc2c(sc(NC(=O)c3ccc([N+](=O)[O-])cc3)c2C(N)=O)C1 (stereo unspecified) |
| – | 50.1 | – | 398 | – | CC1(C)CCc2c(sc(NC(=O)c3ccccc3[N+](=O)[O-])c2C(N)=O)C1 |
| – | 1260 | – | 6310 | – | CC(C)(C)C1CCc2sc(NC(=O)c3ccccc3[N+](=O)[O-])c(C(N)=O)c2C1 (stereo unspecified) |
| – | 10 | – | 126 | 10 | CCC1CCc2c(sc(NC(=O)c3ccccc3[N+](=O)[O-])c2C(N)=O)C1 (stereo unspecified) |
| – | 25.1 | – | 126 | – | CC(C)(C)C1CCc2c(sc(NC(=O)c3ccccc3[N+](=O)[O-])c2C(N)=O)C1 (stereo unspecified) |
| – | 631 | – | > 2510 | – | CC1CCc2c(sc(NC(=O)c3cccc([N+](=O)[O-])c3)c2C(N)=O)C1 (stereo unspecified) |
| – | 1260 | – | 6310 | – | NC(=O)c1c(NC(=O)c2ccccc2[N+](=O)[O-])sc2c1CCCC2 |
| – | 2000 | – | 6310 | – | CC1CCc2sc(NC(=O)c3ccccc3[N+](=O)[O-])c(C(N)=O)c2C1 (stereo unspecified) |
| – | 398 | – | 1580 | – | NC(=O)c1c(NC(=O)c2ccccc2[N+](=O)[O-])sc2c1CCC(c1ccccc1)C2 (stereo unspecified) |
